The record followed here is ChEMBL document CHEMBL1125635, “Effect of hydroxyl group configuration in hydroxyethylamine dipeptide isosteres on HIV protease inhibition. Evidence for multiple binding modes” (J Med Chem, 1991).

As usually defined, the IC50 is the concentration that inhibits the measured activity by half. The low end stands for higher potency, the high end for lower potency. As usually defined, the Ki is a measure of affinity in units of concentration, obtained from inhibition or displacement. Higher therefore signals a looser hold on the target.

Test [1] concerns the target T1, Human immunodeficiency virus type 1 protease (Human immunodeficiency virus 1, UniProt Q72874). Kind of test: In vitro concentration required to inhibit 50% activity of HIV protease was measured. Type of test: functional.
Test [2] addresses T1, Human immunodeficiency virus type 1 protease. The experiment in a line: In vitro concentration required to inhibit 50% activity of HIV protease was measured (exp 2). Type of test: functional.
Test [3] shares this target. The experiment in a line: In vitro binding affinity against HIV protease was measured.

Regarding `CC(C)(C)OC(=O)[C@@H]1CCCN1C[C@@H](O)[C@H](Cc1ccccc1)NC(=O)[C@H](CC(N)=O)NC(=O)OCc1ccccc1`, the values for the IC50 in test [1] and in test [2] were 450 nM and 300 nM, respectively.

In the case of `CC(C)(C)OC(=O)[C@@H]1CCCN1C[C@H](O)[C@H](Cc1ccccc1)NC(=O)[C@H](CC(N)=O)NC(=O)OCc1ccccc1`, the IC50 in test [1] worked out at 51 nM; in test [2], 140 nM.

For `CC(=O)N[C@@H](CO)C(=O)N[C@@H](CC(C)C)C(=O)N[C@@H](CC(N)=O)C(=O)N[C@@H](Cc1ccccc1)[C@H](O)CN1CCC[C@H]1C(=O)OC(C)(C)C`, the midpoint of inhibition in test [1], the IC50, lay at 14 nM.

On to `CC[C@H](C)[C@H](NC(=O)[C@@H]1CCCN1C[C@@H](O)[C@H](Cc1ccccc1)NC(=O)[C@H](CC(N)=O)NC(=O)OC(C)(C)C)C(=O)N[C@H](C(=O)OC)C(C)C`, for which the IC50 in test [1] was 850 nM.

Regarding `CC[C@H](C)[C@H](NC(=O)[C@@H]1CCCN1C[C@H](O)[C@H](Cc1ccccc1)NC(=O)[C@H](CC(N)=O)NC(=O)OC(C)(C)C)C(=O)N[C@H](C(=O)OC)C(C)C`, in test [1], it took 16 nM to reach half-maximal inhibition (IC50).

For `CC(=O)N[C@@H](CO)C(=O)N[C@@H](CC(C)C)C(=O)N[C@@H](CC(N)=O)C(=O)N[C@@H](Cc1ccccc1)[C@@H](O)CN1CCC[C@H]1C(=O)OC(C)(C)C`, 14 nM corresponded to half-maximal inhibition in test [1] (IC50).

Turning to `CC[C@H](C)[C@H](NC(=O)[C@@H]1CCCN1C[C@H](O)[C@H](Cc1ccccc1)NC(=O)[C@H](CC(N)=O)NC(=O)OCc1ccccc1)C(=O)N[C@@H](Cc1ccccc1)C(=O)OC`, inhibition in test [1] was half-maximal at 4 nM (IC50).

The compound `CC[C@H](C)[C@H](NC(=O)[C@@H]1CCCN1C[C@H](O)[C@H](Cc1ccccc1)NC(=O)[C@H](CC(N)=O)NC(=O)c1ccc2ccccc2n1)C(=O)N[C@@H](Cc1ccccc1)C(=O)OC` displayed an IC50 in test [1] of 2.3 nM.

Turning to `CC[C@H](C)[C@H](NC(=O)[C@@H]1CCCN1CC(O)[C@H](Cc1ccccc1)NC(=O)[C@H](CC(N)=O)NC(=O)[C@H](CC(C)C)NC(=O)[C@H](CO)NC(C)=O)C(=O)N[C@H](C(=O)OC)C(C)C` (mixture of isomers), the IC50 in test [1] turned out to be 9 nM. Moreover, the affinity in test [3], expressed as Ki, was 0.6 nM.

Consider `CC[C@H](C)[C@H](NC(=O)[C@@H]1CCCN1C[C@H](O)[C@H](Cc1ccccc1)NC(=O)[C@H](CC(N)=O)NC(=O)[C@H](CC(C)C)NC(=O)[C@H](CO)NC(C)=O)C(=O)N[C@H](C(=O)OC)C(C)C` (stereo in doubt; 1R), for which 65 nM corresponded to half-maximal inhibition in test [1] (IC50). Also, the Ki in test [3] is 20 nM.

Regarding `CC[C@H](C)[C@H](NC(=O)[C@@H]1CCCN1C[C@H](O)[C@H](Cc1ccccc1)NC(=O)[C@H](CC(N)=O)NC(=O)[C@H](CC(C)C)NC(=O)[C@H](CO)NC(C)=O)C(=O)N[C@H](C(=O)OC)C(C)C` (stereo in doubt; 1S), in test [1], inhibition was half-maximal at 3.4 nM (IC50). The compound also showed a Ki in test [3] of 0.24 nM.
